Assay type in all cases: cell-based
In experiment [1] the test system is Prüfmikroorganismen. The experiment in a line: Inactivator test, overall statement for all four test organisms. The conditions noted are these: concentration range 0,02 - 0,05 Gew.-% in o/w emulsion. The source says: (§1) Um die Wirksamkeit der antimikrobiellen Wirkstoffe in einem bestimmten Konzentrationsbereich in einer Öl in Wasser Emulsion zu testen wurde ein Inaktivatortest nach prEN13727 (2008) und prEN13624 (2010) gegenüber Enterococcus hirae (ATCC 10541), Escherichia coli (ATCC 11229), Pseudomonas aeruginosa (ATCC 15442) und Staphylococcus aureus (ATCC 6538) für n = 4 durchgeführt. Die Messergebnisse sind in Tabelle 8 wiedergegeben. Tabelle 8

Experiment [2] deals with Enterococcus hirae (ATCC 10541). The experiment in a line: Inactivator test per prEN13727 (2008) and prEN13624 (2010). The conditions noted are these: n = 4.
Text: (§2) Es wurden Öl in Wasser Emulsionen hergestellt, die unterschiedliche Mengen X des antimikrobiellen Wirkstoffs Polyhexamethylenbiguanidiniumhydrochlorid (PHMB) [erfindungsgemäß] und Chlorhexidin (CHX) [Vergleich] aufweisen. Die Öl in Wasser Emulsionen sind in Tabelle 7 wiedergegeben. Tabelle 7
as §1

Experiment [3] relates to Pseudomonas aeruginosa (ATCC 15442). The experiment is described as above. The following applies: n = 4.
Text: as §2, §1

For experiment [4], the system named is Staphylococcus aureus (ATCC 6538). Described as above. The conditions noted are these: n = 4.
Text: as §2, §1

The subject of experiment [5] is Escherichia coli (ATCC 11229). The experiment is described as above. The conditions noted are these: n = 4.
Text: as §2, §1

Setting [6] is: 0,02% active in o/w emulsion (Tabelle 7).
The mark [7] stands for this setting: 0,03% active in o/w emulsion (Tabelle 7).
Where [8] appears, read: 0,04% active in o/w emulsion (Tabelle 7).
Where [9] appears, read: 0,05% active in o/w emulsion (Tabelle 7).

The record followed here is patent publication EP2552195B1, “ANTIMICROBIAL OIL-IN-WATER EMULSION” (B. Braun Melsungen AG, priority 2010, dated 2011).

SMILES strings stand for the structures.

Regarding `N=C(NCCCCCCNC(=N)NC(=N)Nc1ccc(Cl)cc1)NC(=N)Nc1ccc(Cl)cc1` [CHX, Chlorhexidin], the “mikrobiozide Wirkung in der Öl in Wasser Emulsion” value in experiment [1] was “inaktiviert vollständig”. For the same compound, the “Kolonien-bildende Einheiten E. hirae” value in experiment [2] (setting [6]) came out at 104 ± 4; in experiment [2] (setting [7]) it was 102 ± 5; in experiment [2] (setting [8]), 106 ± 3; in experiment [2] (setting [9]), 106 ± 3. The “Kolonien-bildende Einheiten P. aeruginosa” value is recorded as 316 ± 50 in experiment [3] (setting [6]), 315 ± 43 in experiment [3] (setting [7]), 355 ± 10 in experiment [3] (setting [8]) and 339 ± 37 in experiment [3] (setting [9]). Besides, the “Kolonien-bildende Einheiten S. aureus” value in experiment [4] (setting [6]) is 149 ± 5; in experiment [4] (setting [7]) it was 156 ± 13; in experiment [4] (setting [8]), 160 ± 8; in experiment [4] (setting [9]), 159 ± 10. The “Kolonien-bildende Einheiten E. coli” value in experiment [5] (setting [6]) was 132 ± 1; in experiment [5] (setting [7]) it was 131 ± 5; in experiment [5] (setting [8]) it was 130 ± 9; in experiment [5] (setting [9]) it was 130 ± 9.
